Among the targets are Mu-type opioid receptor (Homo sapiens, UniProt P35372); Motilin receptor (Homo sapiens, UniProt O43193); D(3) dopamine receptor (Homo sapiens, UniProt P35462); Histamine H3 receptor (Homo sapiens, UniProt Q9Y5N1); Histamine H1 receptor (Homo sapiens, UniProt P35367).
The target in assay [1] is T1, Amine oxidase [flavin-containing] A (Homo sapiens, UniProt P21397).
T1 sequence (P21397 whole entry): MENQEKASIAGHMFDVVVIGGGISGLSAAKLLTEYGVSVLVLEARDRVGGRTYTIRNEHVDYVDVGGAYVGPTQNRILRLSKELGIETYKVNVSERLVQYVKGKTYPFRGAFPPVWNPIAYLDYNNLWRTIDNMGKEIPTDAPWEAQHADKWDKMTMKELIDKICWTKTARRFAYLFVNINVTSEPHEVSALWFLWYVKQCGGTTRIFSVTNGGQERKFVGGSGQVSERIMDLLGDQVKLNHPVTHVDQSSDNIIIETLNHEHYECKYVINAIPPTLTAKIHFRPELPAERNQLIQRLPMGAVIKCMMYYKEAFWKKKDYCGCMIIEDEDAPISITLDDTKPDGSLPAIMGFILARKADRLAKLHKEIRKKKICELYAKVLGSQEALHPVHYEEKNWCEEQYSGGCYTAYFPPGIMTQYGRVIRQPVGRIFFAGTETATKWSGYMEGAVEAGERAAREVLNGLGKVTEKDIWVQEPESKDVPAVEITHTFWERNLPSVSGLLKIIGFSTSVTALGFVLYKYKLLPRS
Format: functional.

The target of assay [2] is Muscarinic acetylcholine receptor M3 (Homo sapiens, UniProt P20309).
Sequence of Muscarinic acetylcholine receptor M3 (P20309 whole entry): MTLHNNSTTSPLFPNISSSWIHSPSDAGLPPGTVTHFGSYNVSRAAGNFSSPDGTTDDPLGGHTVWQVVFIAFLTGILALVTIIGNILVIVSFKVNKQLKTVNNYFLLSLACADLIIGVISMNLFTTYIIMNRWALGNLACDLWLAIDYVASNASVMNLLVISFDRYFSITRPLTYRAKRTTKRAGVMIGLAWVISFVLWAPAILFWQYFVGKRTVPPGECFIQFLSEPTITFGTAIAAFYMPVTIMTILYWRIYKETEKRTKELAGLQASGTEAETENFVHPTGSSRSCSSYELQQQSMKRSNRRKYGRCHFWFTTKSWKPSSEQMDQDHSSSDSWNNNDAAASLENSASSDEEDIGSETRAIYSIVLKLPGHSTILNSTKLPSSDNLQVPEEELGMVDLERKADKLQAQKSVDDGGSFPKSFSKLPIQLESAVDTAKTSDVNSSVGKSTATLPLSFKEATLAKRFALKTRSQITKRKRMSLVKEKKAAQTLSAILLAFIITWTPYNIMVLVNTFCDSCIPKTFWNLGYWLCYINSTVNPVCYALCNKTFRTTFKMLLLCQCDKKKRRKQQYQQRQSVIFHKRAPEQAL
Assay [3] deals with T2, Cannabinoid receptor 1 (Homo sapiens, UniProt P21554).
T2 sequence (P21554 whole entry): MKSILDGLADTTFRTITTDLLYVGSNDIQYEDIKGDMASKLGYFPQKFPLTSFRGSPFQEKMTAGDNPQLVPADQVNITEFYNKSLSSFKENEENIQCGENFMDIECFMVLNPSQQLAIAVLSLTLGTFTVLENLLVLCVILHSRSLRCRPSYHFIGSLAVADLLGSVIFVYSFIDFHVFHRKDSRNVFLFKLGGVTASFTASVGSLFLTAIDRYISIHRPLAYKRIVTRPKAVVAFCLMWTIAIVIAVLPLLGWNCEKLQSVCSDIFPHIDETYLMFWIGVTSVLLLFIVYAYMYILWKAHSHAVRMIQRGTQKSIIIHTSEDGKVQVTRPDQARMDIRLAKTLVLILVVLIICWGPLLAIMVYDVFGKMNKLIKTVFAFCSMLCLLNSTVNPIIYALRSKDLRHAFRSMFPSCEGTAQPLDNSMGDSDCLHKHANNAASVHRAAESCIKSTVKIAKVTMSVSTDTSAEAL
Assay [4] has as its target Prostaglandin G/H synthase 1 (Homo sapiens, UniProt P23219). It is filed as functional.
Assay [5] concerns the target Neuronal acetylcholine receptor subunit alpha-4 (Homo sapiens, UniProt P43681).
The target in a further assay is T3, Progesterone receptor (Homo sapiens, UniProt P06401).
T3 sequence (P06401 whole entry): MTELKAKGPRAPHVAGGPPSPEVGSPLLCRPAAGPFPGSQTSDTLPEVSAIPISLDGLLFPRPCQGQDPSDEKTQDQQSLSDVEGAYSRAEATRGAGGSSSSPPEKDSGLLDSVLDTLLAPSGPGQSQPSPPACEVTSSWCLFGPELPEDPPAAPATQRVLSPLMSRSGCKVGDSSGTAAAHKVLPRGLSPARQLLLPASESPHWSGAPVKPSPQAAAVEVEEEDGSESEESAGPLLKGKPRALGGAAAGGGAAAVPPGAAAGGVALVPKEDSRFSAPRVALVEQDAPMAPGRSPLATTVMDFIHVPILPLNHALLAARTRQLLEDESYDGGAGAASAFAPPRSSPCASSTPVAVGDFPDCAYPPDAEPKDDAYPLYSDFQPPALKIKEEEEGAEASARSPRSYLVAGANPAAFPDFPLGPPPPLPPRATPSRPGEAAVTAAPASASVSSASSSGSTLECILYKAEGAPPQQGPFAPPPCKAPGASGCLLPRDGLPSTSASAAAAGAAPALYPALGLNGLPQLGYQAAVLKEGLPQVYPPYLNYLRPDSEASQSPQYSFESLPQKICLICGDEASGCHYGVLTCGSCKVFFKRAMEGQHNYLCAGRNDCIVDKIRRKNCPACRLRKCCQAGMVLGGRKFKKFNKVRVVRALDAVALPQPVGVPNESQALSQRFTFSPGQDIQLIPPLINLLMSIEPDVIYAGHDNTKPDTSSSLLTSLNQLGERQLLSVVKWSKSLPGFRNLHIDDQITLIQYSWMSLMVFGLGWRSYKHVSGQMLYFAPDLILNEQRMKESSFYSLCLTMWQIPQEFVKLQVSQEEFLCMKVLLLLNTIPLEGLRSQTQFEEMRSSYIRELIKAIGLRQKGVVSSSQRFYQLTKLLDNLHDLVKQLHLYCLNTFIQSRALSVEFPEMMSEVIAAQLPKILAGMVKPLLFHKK
Format: functional.

For a further assay, the target named is D(1A) dopamine receptor (Homo sapiens, UniProt P21728). Format: functional, cell-based.
Sequence of D(1A) dopamine receptor (P21728 whole entry): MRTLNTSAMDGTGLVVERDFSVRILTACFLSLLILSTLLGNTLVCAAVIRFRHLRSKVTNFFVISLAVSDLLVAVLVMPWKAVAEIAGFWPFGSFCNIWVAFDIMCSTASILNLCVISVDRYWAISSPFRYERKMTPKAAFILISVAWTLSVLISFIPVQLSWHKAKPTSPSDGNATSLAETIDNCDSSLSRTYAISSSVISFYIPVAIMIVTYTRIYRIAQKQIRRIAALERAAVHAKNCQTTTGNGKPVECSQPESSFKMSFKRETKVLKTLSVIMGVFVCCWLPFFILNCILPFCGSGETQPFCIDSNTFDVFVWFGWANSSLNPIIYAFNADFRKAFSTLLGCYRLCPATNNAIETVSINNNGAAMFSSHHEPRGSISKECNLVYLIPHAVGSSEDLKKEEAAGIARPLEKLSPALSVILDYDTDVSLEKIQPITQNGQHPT
The target in assay [6] is T2, Cannabinoid receptor 1. It is filed as functional, cell-based.

Where only a bound is given, the exact number is not on record here.
Also: assay procedure not described here.

Sequence of Motilin receptor (O43193 whole entry): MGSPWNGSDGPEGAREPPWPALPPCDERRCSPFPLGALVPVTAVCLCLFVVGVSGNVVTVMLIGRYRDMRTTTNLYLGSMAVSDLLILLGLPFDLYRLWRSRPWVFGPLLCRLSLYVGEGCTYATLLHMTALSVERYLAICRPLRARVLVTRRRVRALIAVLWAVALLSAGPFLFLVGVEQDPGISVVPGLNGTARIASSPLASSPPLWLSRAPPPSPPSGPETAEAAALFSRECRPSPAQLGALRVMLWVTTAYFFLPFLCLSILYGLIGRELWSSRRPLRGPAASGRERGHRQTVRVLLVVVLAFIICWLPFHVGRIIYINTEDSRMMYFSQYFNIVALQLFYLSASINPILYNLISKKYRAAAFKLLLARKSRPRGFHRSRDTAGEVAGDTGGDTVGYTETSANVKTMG
Sequence of Prostaglandin G/H synthase 1 (P23219 whole entry): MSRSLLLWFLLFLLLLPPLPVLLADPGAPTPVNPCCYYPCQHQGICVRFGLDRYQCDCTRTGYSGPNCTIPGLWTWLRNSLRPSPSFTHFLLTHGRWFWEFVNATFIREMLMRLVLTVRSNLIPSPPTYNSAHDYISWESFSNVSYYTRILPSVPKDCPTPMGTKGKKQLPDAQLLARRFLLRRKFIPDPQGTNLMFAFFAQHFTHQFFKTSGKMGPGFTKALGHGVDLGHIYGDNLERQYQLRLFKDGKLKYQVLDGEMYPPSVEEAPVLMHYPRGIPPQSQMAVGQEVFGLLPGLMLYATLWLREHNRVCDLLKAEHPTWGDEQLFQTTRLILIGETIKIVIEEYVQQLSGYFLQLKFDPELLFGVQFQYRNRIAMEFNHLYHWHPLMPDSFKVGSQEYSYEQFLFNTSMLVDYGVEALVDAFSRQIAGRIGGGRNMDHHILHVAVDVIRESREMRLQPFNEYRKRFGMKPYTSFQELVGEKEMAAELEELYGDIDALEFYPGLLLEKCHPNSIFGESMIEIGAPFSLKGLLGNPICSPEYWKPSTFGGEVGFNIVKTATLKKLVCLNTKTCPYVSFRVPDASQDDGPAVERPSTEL
Sequence of Mu-type opioid receptor (P35372 whole entry): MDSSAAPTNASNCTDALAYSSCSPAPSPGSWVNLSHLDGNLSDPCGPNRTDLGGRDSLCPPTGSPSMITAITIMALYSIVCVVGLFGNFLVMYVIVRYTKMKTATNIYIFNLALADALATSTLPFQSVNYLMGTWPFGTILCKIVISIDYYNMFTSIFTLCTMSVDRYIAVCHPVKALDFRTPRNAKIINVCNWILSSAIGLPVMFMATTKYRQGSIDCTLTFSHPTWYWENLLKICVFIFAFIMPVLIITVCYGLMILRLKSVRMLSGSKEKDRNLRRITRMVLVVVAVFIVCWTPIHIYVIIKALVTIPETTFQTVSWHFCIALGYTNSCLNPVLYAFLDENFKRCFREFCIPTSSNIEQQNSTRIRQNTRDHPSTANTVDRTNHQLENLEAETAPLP
Sequence of Neuronal acetylcholine receptor subunit alpha-4 (P43681 whole entry): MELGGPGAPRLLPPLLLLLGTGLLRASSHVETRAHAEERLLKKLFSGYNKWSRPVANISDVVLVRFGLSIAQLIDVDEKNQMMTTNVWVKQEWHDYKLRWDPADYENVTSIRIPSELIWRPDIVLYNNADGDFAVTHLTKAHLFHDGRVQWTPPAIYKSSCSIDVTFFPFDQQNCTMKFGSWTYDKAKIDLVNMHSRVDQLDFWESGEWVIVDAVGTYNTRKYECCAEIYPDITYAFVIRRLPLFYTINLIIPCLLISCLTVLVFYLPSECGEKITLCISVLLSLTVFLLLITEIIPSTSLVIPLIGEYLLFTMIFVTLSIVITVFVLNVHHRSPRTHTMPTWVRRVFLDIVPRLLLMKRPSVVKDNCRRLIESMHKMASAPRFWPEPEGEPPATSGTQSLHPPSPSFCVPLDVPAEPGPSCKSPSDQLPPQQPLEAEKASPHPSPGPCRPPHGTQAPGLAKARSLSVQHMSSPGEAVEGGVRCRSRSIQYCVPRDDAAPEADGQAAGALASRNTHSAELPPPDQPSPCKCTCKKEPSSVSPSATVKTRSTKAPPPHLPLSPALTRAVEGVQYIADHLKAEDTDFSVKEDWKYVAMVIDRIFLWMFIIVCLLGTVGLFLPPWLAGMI
Sequence of Histamine H3 receptor (Q9Y5N1 whole entry): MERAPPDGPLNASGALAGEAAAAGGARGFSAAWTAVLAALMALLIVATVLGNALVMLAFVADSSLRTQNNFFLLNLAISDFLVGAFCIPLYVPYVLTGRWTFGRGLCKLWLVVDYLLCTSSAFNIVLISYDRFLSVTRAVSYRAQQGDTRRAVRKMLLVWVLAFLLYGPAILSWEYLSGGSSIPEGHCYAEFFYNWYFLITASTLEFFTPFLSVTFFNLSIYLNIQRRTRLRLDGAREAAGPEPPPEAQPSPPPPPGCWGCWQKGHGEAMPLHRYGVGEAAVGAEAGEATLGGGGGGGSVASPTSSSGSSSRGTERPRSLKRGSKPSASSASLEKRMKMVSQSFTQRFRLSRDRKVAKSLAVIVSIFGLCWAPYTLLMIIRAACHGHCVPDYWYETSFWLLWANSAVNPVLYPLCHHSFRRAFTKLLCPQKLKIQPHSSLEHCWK
Sequence of D(3) dopamine receptor (P35462 whole entry): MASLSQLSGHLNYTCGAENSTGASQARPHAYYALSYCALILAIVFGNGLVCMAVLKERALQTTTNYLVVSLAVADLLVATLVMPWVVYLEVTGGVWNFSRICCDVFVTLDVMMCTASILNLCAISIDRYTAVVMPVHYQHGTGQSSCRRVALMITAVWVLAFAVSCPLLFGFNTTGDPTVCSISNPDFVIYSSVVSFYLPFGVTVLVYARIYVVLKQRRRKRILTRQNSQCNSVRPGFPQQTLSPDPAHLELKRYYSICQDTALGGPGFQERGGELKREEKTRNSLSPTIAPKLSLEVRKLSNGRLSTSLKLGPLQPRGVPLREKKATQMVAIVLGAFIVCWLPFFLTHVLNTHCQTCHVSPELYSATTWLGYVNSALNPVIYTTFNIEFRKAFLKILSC
Sequence of Histamine H1 receptor (P35367 whole entry): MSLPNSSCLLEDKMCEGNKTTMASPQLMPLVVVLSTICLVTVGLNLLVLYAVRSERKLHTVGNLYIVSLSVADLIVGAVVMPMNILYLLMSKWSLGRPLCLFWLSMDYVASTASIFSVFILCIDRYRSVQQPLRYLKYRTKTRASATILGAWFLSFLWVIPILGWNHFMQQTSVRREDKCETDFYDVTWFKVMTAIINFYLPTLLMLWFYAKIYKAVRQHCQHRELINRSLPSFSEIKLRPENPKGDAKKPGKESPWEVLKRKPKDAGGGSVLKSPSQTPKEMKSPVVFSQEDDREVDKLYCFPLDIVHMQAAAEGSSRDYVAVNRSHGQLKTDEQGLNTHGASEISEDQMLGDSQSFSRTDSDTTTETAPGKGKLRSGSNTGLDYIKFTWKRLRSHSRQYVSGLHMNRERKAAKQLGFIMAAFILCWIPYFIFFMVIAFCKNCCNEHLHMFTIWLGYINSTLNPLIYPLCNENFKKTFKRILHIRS

`O=C(/C=C/c1cccc(S(=O)(=O)Nc2ccccc2)c1)NO` [BELINOSTAT]: the AC50 (in general, the concentration giving half of the maximal activity seen) is over 30 µM on Mu-type opioid receptor; over 10 µM on Motilin receptor; over 10 µM in assay [1]; over 30 µM on D(3) dopamine receptor; over 30 µM in [2]; over 10 µM on Cannabinoid receptor 1 [3]. The AC50 is 5.61 µM in assay [4], over 10 µM at Histamine H3 receptor, over 10 µM at Histamine H1 receptor and over 10 µM in assay [5].
In the case of `CC(C)(Oc1ccc(CCNC(=O)c2ccc(Cl)cc2)cc1)C(=O)O` [BEZAFIBRATE], the AC50 at Progesterone receptor is over 10 µM; at D(1A) dopamine receptor it was over 10 µM; at Motilin receptor, over 10 µM; in assay [1], over 10 µM; on D(3) dopamine receptor, over 30 µM; at Cannabinoid receptor 1 [3], over 10 µM. The values for the AC50 (on Cannabinoid receptor 1 [6]; at Histamine H3 receptor; in [5]) were over 30 µM, over 10 µM and over 10 µM, respectively.
As to `O=C1c2ccccc2C(=O)C1c1ccccc1` [PHENINDIONE], the AC50 on Progesterone receptor is over 10 µM; at D(1A) dopamine receptor, over 10 µM; at Motilin receptor it was over 10 µM; in assay [1] it was over 10 µM; on D(3) dopamine receptor, over 30 µM; at Cannabinoid receptor 1 [3] it was over 10 µM. For the same compound, the AC50 is over 30 µM on Cannabinoid receptor 1 [6], over 10 µM at Histamine H3 receptor and over 10 µM in assay [5].
Take `CC(=O)O[C@]1(C(C)=O)CC[C@H]2[C@@H]3C=C(Cl)C4=CC(=O)[C@@H]5C[C@@H]5[C@]4(C)[C@H]3CC[C@@]21C` [CYPROTERONE ACETATE]: the half-maximal activity concentration (AC50) at Mu-type opioid receptor was over 30 µM; on Motilin receptor, over 10 µM; in assay [1] it was over 10 µM; at D(3) dopamine receptor, over 30 µM; at Cannabinoid receptor 1 [3], over 10 µM; in assay [4], over 30 µM. The AC50 (at Histamine H3 receptor; in assay [5]) was over 10 µM each time.
As to `CN(Cc1cnc2nc(N)nc(N)c2n1)c1ccc(C(=O)N[C@@H](CCC(=O)O)C(=O)O)cc1` [METHOTREXATE], the AC50 on D(1A) dopamine receptor was over 10 µM; on Motilin receptor, over 10 µM; in [1], over 10 µM; on D(3) dopamine receptor, over 30 µM; at Cannabinoid receptor 1 [3], over 10 µM; at Cannabinoid receptor 1 [6] it was over 30 µM. For the same compound, the AC50 (on Histamine H3 receptor; in assay [5]) was over 10 µM each time.
For `C[C@]12CCC(=O)C[C@@H]1CC[C@@H]1[C@@H]2CC[C@]2(C)[C@@H](O)CC[C@@H]12` [STANOLONE], the AC50 at Progesterone receptor is 0.0396 µM; at D(1A) dopamine receptor, over 30 µM; at Motilin receptor it was over 30 µM; in assay [1], over 30 µM; on D(3) dopamine receptor it was over 30 µM; at Cannabinoid receptor 1 [3] it was over 30 µM. For the same compound, the AC50 (at Histamine H3 receptor; in assay [5]) was over 30 µM throughout.
As to `CN[C@]1(c2ccccc2Cl)CCCCC1=O` [ESKETAMINE], the concentration at half-maximal activity (AC50) (on Progesterone receptor; at D(1A) dopamine receptor; at Motilin receptor; in assay [1]; on D(3) dopamine receptor; on Cannabinoid receptor 1 [3]) was over 30 µM each time. For the same compound, the AC50 (at Histamine H3 receptor; in assay [5]) was over 30 µM throughout.
Take `CCOC(=O)c1ccc(N)cc1` [BENZOCAINE]: the AC50 on Progesterone receptor was over 10 µM; at D(1A) dopamine receptor it was over 10 µM; at Motilin receptor, over 10 µM; in assay [1], 19 µM; at D(3) dopamine receptor, over 30 µM; at Cannabinoid receptor 1 [3], over 10 µM. For the same compound, the AC50 (at Histamine H3 receptor; in assay [5]) was over 10 µM in each case.
Consider `CN(C)CCCN1c2ccccc2CCc2ccccc21` [IMIPRAMINE], for which the AC50 on D(1A) dopamine receptor was over 10 µM; on Motilin receptor it was over 10 µM; in assay [1], over 10 µM; at D(3) dopamine receptor it was 0.41 µM; on Cannabinoid receptor 1 [3], 0.174 µM; on Cannabinoid receptor 1 [6] it was over 30 µM. The AC50 at Histamine H3 receptor was over 10 µM.
For the compound `O=C(O)COCCN1CCN(C(c2ccccc2)c2ccc(Cl)cc2)CC1` (stereo not given) [CETIRIZINE], the half-maximal activity concentration (AC50) at Motilin receptor is over 10 µM; in [1] it was over 10 µM; in assay [2] it was over 10 µM; at Cannabinoid receptor 1 [3], over 10 µM; at Cannabinoid receptor 1 [6], over 30 µM; at Histamine H3 receptor, over 10 µM. Moreover, in assay [5], the AC50 was over 10 µM.
Take `CCC[C@@H]1C[C@@H](C(=O)N[C@@H]([C@H]2O[C@H](SC)[C@H](O)[C@@H](O)[C@H]2O)[C@@H](C)O)N(C)C1` [LINCOMYCIN]: the AC50 was over 10 µM on D(1A) dopamine receptor; over 10 µM on Motilin receptor; over 10 µM in assay [1]; over 30 µM at D(3) dopamine receptor; over 10 µM on Cannabinoid receptor 1 [3]; over 30 µM at Cannabinoid receptor 1 [6]. For the same compound, the AC50 in assay [5] is over 10 µM.
For `O=C(O)c1cccnc1Nc1cccc(C(F)(F)F)c1` [NIFLUMIC ACID], the AC50 at Progesterone receptor was over 10 µM; at D(1A) dopamine receptor, over 10 µM; at Motilin receptor it was over 10 µM; in assay [1] it was over 10 µM; on D(3) dopamine receptor, over 30 µM; on Cannabinoid receptor 1 [3], over 10 µM. Besides, in [5], the AC50 is over 10 µM.
As for `CN(C)Cc1nnc2n1-c1ccc(Cl)cc1C(c1ccccc1)=NC2` [ADINAZOLAM], the AC50 at Progesterone receptor is over 10 µM; on D(1A) dopamine receptor it was over 10 µM; at Motilin receptor it was over 10 µM; in [1], over 10 µM; on D(3) dopamine receptor, over 30 µM; at Cannabinoid receptor 1 [3] it was over 10 µM. Moreover, the AC50 (at Histamine H3 receptor; at Histamine H1 receptor; in assay [5]) was over 10 µM in each case.
In the case of `CC(O)(CS(=O)(=O)c1ccc(F)cc1)C(=O)Nc1ccc(C#N)c(C(F)(F)F)c1` (stereo not given) [BICALUTAMIDE], the AC50 was over 30 µM on Progesterone receptor; over 10 µM at D(1A) dopamine receptor; over 30 µM on Mu-type opioid receptor; over 30 µM on Motilin receptor; over 10 µM in [1]; over 10 µM on D(3) dopamine receptor. Besides, the AC50 is over 10 µM at Cannabinoid receptor 1 [3]; over 30 µM on Cannabinoid receptor 1 [6]; over 30 µM in [4]; over 30 µM at Histamine H3 receptor; over 30 µM in [5].
Consider `COC(=O)[C@H]1[C@H]2C[C@@H]3c4[nH]c5cc(OC)ccc5c4CCN3C[C@H]2C[C@@H](OC(=O)c2cc(OC)c(OC)c(OC)c2)[C@@H]1OC` [RESERPINE], for which the AC50 at Progesterone receptor is over 10 µM; at D(1A) dopamine receptor, over 10 µM; on Mu-type opioid receptor, 3.77 µM; at Motilin receptor it was over 10 µM; in assay [1], over 30 µM; on D(3) dopamine receptor, over 30 µM. Besides, the AC50 (on Cannabinoid receptor 1 [3]; in assay [4]; in assay [5]) was over 10 µM in each case.

(Values after ChEMBL document CHEMBL5291721, “A preclinical secondary pharmacology resource illuminates target-adverse drug reaction associations of marketed drugs” (Nat Commun, 2023).)
